Test results reported in article PMC9225712, “Rational design of biodegradable sulphonamide candidates treating septicaemia by synergistic dual inhibition of COX-2/PGE2 axis and DHPS enzyme” (Journal of Enzyme Inhibition and Medicinal Chemistry, 2022).

Key:
[1] = tested on: Staphylococcus aureus (RCMB 0100183); test: Inhibition zone, agar cup diffusion; conditions: RCMB0100183, 24 h, read-out: inhibition zones (IZ) S. aureus
[2] = tested on: Staphylococcus epidermidis (RCMB 0100183); test: Inhibition zone, agar cup diffusion; conditions: RCMB0100183, 24 h, read-out: inhibition zones (IZ) S. epidermidis
[3] = tested on: Streptococcus mutans (RCMB 0100172); test: Inhibition zone, agar cup diffusion; conditions: RCMB0100172, 24 h, read-out: inhibition zones (IZ) S. mutans
[4] = tested on: Bacillus subtilis (RCMB 0100162); test: Inhibition zone, agar cup diffusion; conditions: RCMB0100162, 24 h, read-out: inhibition zones (IZ) B. subtillis
[5] = biological target: T1, human recombinant COX-2 (Homo sapiens, UniProt P35354); test: In vitro COX-2 enzymatic assay (Cayman kit 560131); conditions: for SI COX-1/COX-2: COX-2 selectivity index: COX-1 IC50/COX-2 IC50
T1 sequence (P35354 18-604): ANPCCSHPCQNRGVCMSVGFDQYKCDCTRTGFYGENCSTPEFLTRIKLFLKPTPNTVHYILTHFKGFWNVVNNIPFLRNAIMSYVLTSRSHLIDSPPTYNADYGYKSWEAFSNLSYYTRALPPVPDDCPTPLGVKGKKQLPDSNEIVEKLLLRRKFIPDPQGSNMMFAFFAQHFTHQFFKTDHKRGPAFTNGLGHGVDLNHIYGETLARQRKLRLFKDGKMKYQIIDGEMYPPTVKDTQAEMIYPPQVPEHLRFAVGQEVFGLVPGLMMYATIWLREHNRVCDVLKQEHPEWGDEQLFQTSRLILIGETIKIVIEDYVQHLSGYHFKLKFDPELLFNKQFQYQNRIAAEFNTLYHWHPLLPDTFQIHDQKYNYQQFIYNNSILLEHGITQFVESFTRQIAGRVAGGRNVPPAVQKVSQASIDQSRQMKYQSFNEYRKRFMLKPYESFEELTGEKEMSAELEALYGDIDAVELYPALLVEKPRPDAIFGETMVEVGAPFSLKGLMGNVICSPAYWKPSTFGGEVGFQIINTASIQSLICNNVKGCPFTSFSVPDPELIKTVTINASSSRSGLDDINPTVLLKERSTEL

[6] = tested on: Proteus vulgaris (RCMB 010085); test: Inhibition zone, agar cup diffusion; conditions: RCMB010085, 24 h, read-out: inhibition zones (IZ) P. vulgaris
[7] = tested on: Escherichia coli (RCMB 010052); test: Inhibition zone, agar cup diffusion; conditions: RCMB010052, 24 h, read-out: inhibition zones (IZ) E.coli
[8] = tested on: Salmonella typhi (RCMB 0100104); test: Inhibition zone, agar cup diffusion; assay type: cell-based; conditions: Salmonella enterica, 24 h, read-out: inhibition zones (IZ) S. typhi
[9] = tested on: Pseudomonas aeruginosa (RCMB 0100243); test: Inhibition zone, agar cup diffusion; conditions: RCMB0100243, 24 h, read-out: inhibition zones (IZ) P.aeruginosa
[10] = tested on: Shigella dysenteriae (RCMB 0100542); test: Inhibition zone, agar cup diffusion; assay type: cell-based; conditions: RCMB0100542, 24 h, read-out: inhibition zones (IZ) S. dysenteriae
[11] = biological target: T2, ovine COX-1 (Ovis aries, UniProt P05979); test: In vitro COX-1 enzymatic assay (Cayman kit 560131); assay type: biochemical; conditions: Mean ± SEM of triplicate determinations
T2 construct: purchased Cayman Chemicals Inc. 560131
T2 sequence (P05979 25-600): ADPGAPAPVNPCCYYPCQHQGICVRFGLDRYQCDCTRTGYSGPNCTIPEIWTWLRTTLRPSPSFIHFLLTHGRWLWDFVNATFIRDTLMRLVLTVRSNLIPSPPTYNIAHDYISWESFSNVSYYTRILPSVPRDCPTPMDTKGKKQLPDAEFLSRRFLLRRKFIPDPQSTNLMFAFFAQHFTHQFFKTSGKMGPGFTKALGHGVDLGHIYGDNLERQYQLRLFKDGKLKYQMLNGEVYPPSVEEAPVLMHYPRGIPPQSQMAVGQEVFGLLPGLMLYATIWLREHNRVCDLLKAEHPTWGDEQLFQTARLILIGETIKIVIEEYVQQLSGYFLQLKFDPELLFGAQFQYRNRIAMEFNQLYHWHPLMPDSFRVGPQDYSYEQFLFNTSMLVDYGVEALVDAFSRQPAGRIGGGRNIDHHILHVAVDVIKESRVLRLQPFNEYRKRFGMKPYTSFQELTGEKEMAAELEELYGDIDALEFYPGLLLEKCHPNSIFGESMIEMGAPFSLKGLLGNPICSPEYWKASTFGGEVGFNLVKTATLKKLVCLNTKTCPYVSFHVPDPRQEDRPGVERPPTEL

Row | SMILES | zone of inhibition at 1000 µg/mL [1] [mm] | zone of inhibition at 1000 µg/mL [2] [mm] | zone of inhibition at 1000 µg/mL [3] [mm] | zone of inhibition at 1000 µg/mL [4] [mm] | IC50 [5] [nM] | SI COX-1/COX-2 [5] | zone of inhibition at 1000 µg/mL [6] [mm] | zone of inhibition at 1000 µg/mL [7] [mm] | zone of inhibition at 1000 µg/mL [8] [mm] | zone of inhibition at 1000 µg/mL [9] [mm] | zone of inhibition at 1000 µg/mL [10] [mm] | IC50 [11] [µM]
1 | CC1(C)S[C@@H]2[C@H](NC(=O)[C@H](N)c3ccccc3)C(=O)N2[C@H]1C(=O)O [Ampicillin, reference compound] | 30 | 32 | 30 | 15 | – | – | – | – | – | – | – | –
2 | CCCCNC(=O)c1cc(/N=N/c2ccc(S(N)(=O)=O)cc2)ccc1O [Compound 5a, N-Butyl-2-hydroxy-5-((4-sulfamoylphenyl)diazenyl) benzamide] | 26 | 33 | 29 | 17 | 110 ± 0.3 | 87.3 | 18 | 14 | 15 | 14 | 25 | 9.6 ± 0.06
3 | CCCCNC(=O)c1cc(/N=N/c2ccc(S(=O)(=O)Nc3ncccn3)cc2)ccc1O [Compound 5c, N-Butyl-2-hydroxy-5-((4-(N-(pyrimidin-2-yl)sulfamoyl)phenyl)diazenyl) benzamide] | 29 | 30 | 31 | 19 | 80 ± 0.3 | 145.5 | 17 | 16 | 13 | 16 | 25 | 11.2 ± 0.08
4 | CCCCNC(=O)c1cc(/N=N/c2ccc(S(=O)(=O)Nc3nccc(C)n3)cc2)ccc1O [Compound 5d, N-Butyl-2-hydroxy-5-((4-(N-(4-methylpyrimidin-2yl)sulfamoyl)phenyl)diazenyl) benzamide] | 28 | 32 | 28 | 20 | 90 ± 1 | 116.5 | 19 | 16 | 16 | 18 | 26 | 10.6 ± 0.08
5 | NS(=O)(=O)c1ccc(/N=N/c2ccc(O)c(C(=O)NCc3ccccc3)c2)cc1 [Compound 5e, N-Benzyl-2-hydroxy-5-((4-sulfamoylphenyl)diazenyl) benzamide] | 32 | 35 | 30 | 16 | 120 ± 3 | 69.2 | 21 | 16 | 16 | 18 | 25 | 8.3 ± 0.06
6 | O=C(NCc1ccccc1)c1cc(/N=N/c2ccc(S(=O)(=O)Nc3nccs3)cc2)ccc1O [Compound 5f, N-Benzyl-2-hydroxy-5-((4-(N-(thiazol-2-yl)sulfamoyl)phenyl)diazenyl) benzamide] | 24 | 36 | 27 | 17 | 110 ± 3 | 88.2 | 17 | 16 | 16 | 16 | 25 | 9.7 ± 0.06
7 | O=C(NCc1ccccc1)c1cc(/N=N/c2ccc(S(=O)(=O)Nc3ncccn3)cc2)ccc1O [Compound 5g, N-Benzyl-2-hydroxy-5-((4-(N-(pyrimidin-2-yl)sulfamoyl)phenyl)diazenyl) benzamide] | 26 | 32 | 30 | 20 | 100 ± 0.3 | 109.4 | 17 | 16 | 13 | 14 | 26 | 10.5 ± 0.08
8 | NS(=O)(=O)c1ccc(/N=N/c2ccc(O)c(C(=O)N3CCCCC3)c2)cc1 [Compound 5h, 4-((4-Hydroxy-3-(piperidine-1-carbonyl)phenyl)diazenyl) benzenesulfonamide] | 22 | 29 | 29 | 20 | 140 | 58.6 | 19 | 14 | 18 | 16 | 24 | 8.2 ± 0.12
9 | NS(=O)(=O)c1ccc(/N=N/c2ccc(O)c(C(=O)N3CCOCC3)c2)cc1 [Compound 5l, 4-((4-Hydroxy-3-(morpholine-4-carbonyl)phenyl)diazenyl) benzenesulfonamide] | 18 | 32 | 26 | 20 | 80 ± 1 | 134.2 | 19 | 14 | 17 | 14 | 26 | 10.2 ± 0.08
10 | C[C@H]1COc2c(N3CCN(C)CC3)c(F)cc3c(=O)c(C(=O)O)cn1c23 [Levofloxacin, levofloxacin, reference compound] | – | – | – | – | – | – | 15 | 11 | 11 | 8 | 20 | –
